Experimental data from article PMC10887108, “Novel Brain-Penetrant, Small-Molecule Tubulin Destabilizers for the Treatment of Glioblastoma” (Biomedicines, 2024).
Converted amounts (≈) assume the structure as drawn. “And” between values parts separate entries of the source, which are not always exact repeats. Identical values can stand only once. Like-named read-outs stand apart in the source and are kept apart here.

What was measured:
[1] = Kinetic solubility in phosphate buffer; type: physicochemical; conditions: 100 mM phosphate buffer, 1% DMSO
Description: Kinetic solubility was determined in phosphate buffer. The compound (4 µL, 10 mM DMSO) was added to the buffer (396 μL 100 mM phosphate buffer, final 1% DMSO) and shaken at 1000 rpm at RT for 1 h. Samples were filtered (Millipore MSSLBPC10; Burlington, MA, USA), the primary filtrate was discarded, and the subsequent filtrate was collected. The supernatant solution was diluted 10× with DMSO. Test samples (10 µL) and working standard curve samples were added to the stop solution (100 μL, containing internal standard) and water/0.1% FA (100 μL). Samples were analyzed by LC-MS/MS. Albendazole, propranolol, and 4,5-diphenylimidazole were used as positive controls.

MDR1 (P-gp) = assay: MDR1-MDCK cellular permeability; type: in vitro ADME, canine; conditions: dog
Description: Cellular permeability was tested using the MDR1-MDCK (multidrug-resistant-1, Madin–Darby canine kidney) cell line. Donor solution was added to a 96-well plate (2 μL, 2 mM compound; 6 μL DMSO in 1992 μL of Hanks’ balanced salt solution [HBSS] buffer) and shaken at 1000 rpm for 10 min (final 0.4% DMSO). Transepithelial electrical resistance (TEER) values were used as a quality control check for monolayer integrity. At 3–5 days post-seeding, each MDCK II cell monolayer was tested to ensure the TEER value was ≥ 83 Ω⋅cm^2. The compound donor working solution was centrifuged (4000 rpm for 5 min) to remove any precipitated compound prior to loading donor chambers. Apical and basolateral plates were warmed at 37 °C for about 5 min prior to the initiation of transport (37 °C, 90 min).
Luciferin marker Lucifer Yellow (150 μL, 50 μM Lucifer Yellow in HBSS, pH 7.4) was added to the apical compartment, and transfer buffer (600 μL) was added to the receiver plate (basolateral compartment) and incubated at 37 °C for 60 min. Apical Lucifer Yellow concentrations for LYT0 and LYT60 were measured by a fluorometer (EX 485/EM 535 nm). Donor and receiver samples were analyzed by LC-MS. Metoprolol, enalapril, and quinidine were used as positive controls. The efflux ratio was calculated as the ratio of apparent permeability (basal-to-apical) and apparent permeability (apical-to-basal).

[2] = system: GBM12, GBM15, GBM39 and GBM43 patient-derived GB cell lines; assay: CellTiter-Glo viability assay, four patient-derived GB cell lines; type: cell-based; conditions: Homo sapiens, 144 h, read-out: IC50 cell viability, range over four patient-derived GB cell lines
Description: Short-term cultures of patient-derived cells GBM12, GBM15, GBM39 and GBM43 (used with permission Mayo Foundation) were seeded (1000 cells/well) in solid white Corning 384-well plates (Corning, NY, USA) and cultured overnight. Cells were treated with DMSO or RGN3067 in a 13-point dose response with a 1:3 serial dilution from an initial concentration of 100 μM. After 144 h, cell viability was measured using CellTiter-Glo (Promega, Madison, WI, USA). Data were normalized to DMSO control, and absolute IC50 values were calculated using GraphPad Prism 10 (San Diego, CA, USA).

porcine tubulin = target: T1, porcine tubulin (Sus scrofa, UniProt P02554); assay: Tubulin polymerization assay (fluorescent reporter); type: biochemical; conditions: compound 5 μM, porcine tubulin 20 μM, relative to DMSO
T1 construct: purchased Cytoskeleton, Inc. BK011P
Description: Tubulin polymerization was evaluated by monitoring the incorporation of a fluorescent reporter into MTs during polymerization. The tubulin polymerization assay kit (Cytoskeleton, Inc. BK011P; Denver, CO, USA) was used according to the manufacturer’s instructions. Briefly, the tubulin reaction mix was kept on ice until immediately prior to use.
(A,B) Representative tubulin polymerization plots and data quantification. […] (C) Immunofluorescence staining of β-tubulin in U87 glioblastoma cells. […] Images were captured using an Operetta confocal microscope at 40× magnification. Scale bar, 10 μm. […] Data was collected with a BD FACS Canto II Flow Cytometer and analyzed using the BD FACSDiva software. (E) The percentage of cells in G1, S, and G2/M phases from the histograms in (D). Data are plotted as mean ± SD from at least three independent experiments. Analysis between groups in (B) was performed using a one-way ANOVA with Tukey’s multiple comparisons test.

U87 glioblastoma cells = assay: Cell cycle analysis (propidium iodide flow cytometry); type: cell-based, human; conditions: U87, 5 µM, 48 h
Description: […] Cells were washed in ice-cold PBS, resuspended in 1 mL of ice-cold 70% ethanol, and fixed overnight at −20 °C. Cells were centrifuged and resuspended in PBS containing RNAse A at a final concentration of 0.5 mg/mL (MilliporeSigma 10109142001; Burlington, MA, USA) and propidium iodide at a final concentration of 0.04 mg/mL (Sigma-Aldrich P4170, St. Louis, MO, USA) for 1 h at 37 °C. Nuclear staining was analyzed using a BD FACSCanto II flow cytometer (BD Biosciences; Franklin Lakes, NJ, USA) to determine cell cycle distribution. Cell cycle analysis was performed using the BD FACSDiva software v8.0.

[3] = system: colchicine binding pocket of β-tubulin in MCF-7 cells; assay: EBI competition colchicine-binding site cellular assay; type: cell-based, human; conditions: MCF-7, compound 50 µM
Description: (C) EBI competition assay in MCF-7 breast cancer cells. […] Total proteins were lysed and subjected to Western blot analysis for β-tubulin. […] GAPDH was employed as the loading control. (D) Quantification of the Western blot in (C). […] Data are plotted as mean ± SD from at least three independent experiments. Analysis between groups in (B) was performed using a one-way ANOVA with Tukey’s multiple comparison test.

U87 cells = assay: Reversibility (washout) cell viability assay; type: cell-based; conditions: Homo sapiens, U-87 MG
[4] = Plasma pharmacokinetics after oral dosing; type: in vivo, CD-1 mice; conditions: mouse, 100 mg/kg oral, CD-1 male mice
Description: Pharmacokinetic studies were carried out by DMPK at WuXi AppTec, Inc. (Cranbury, NJ, USA). The pharmacokinetics of RGN3067 were evaluated in three male CD-1 mice. RGN3067 formulated as a 10 mg/mL solution (20% DMSO, 80% PEG400: PVP 95:5) was administered by oral gavage at a dose of 100 mg/kg. Plasma samples were drawn at 0.5, 1, 2, 4, 6, 10 and 24 h. Samples were analyzed by LC-MS/MS. A calibration curve was established using Waters ACQUITY UPLC BEH C18 column and formic acid in water and formic acid in acetonitrile as mobile phase. Tolbutamide and labetalol were used as internal standards for LC-MS/MS analysis. Compound was detected using electrospray ionization (ESI) positive detection. Pharmacokinetic parameters were calculated using the PO-noncompartmental linear model in Phoenix WinNonlin software v8.3 (Certara, Princeton, NJ, USA).

T1 sequence (P02554 whole entry): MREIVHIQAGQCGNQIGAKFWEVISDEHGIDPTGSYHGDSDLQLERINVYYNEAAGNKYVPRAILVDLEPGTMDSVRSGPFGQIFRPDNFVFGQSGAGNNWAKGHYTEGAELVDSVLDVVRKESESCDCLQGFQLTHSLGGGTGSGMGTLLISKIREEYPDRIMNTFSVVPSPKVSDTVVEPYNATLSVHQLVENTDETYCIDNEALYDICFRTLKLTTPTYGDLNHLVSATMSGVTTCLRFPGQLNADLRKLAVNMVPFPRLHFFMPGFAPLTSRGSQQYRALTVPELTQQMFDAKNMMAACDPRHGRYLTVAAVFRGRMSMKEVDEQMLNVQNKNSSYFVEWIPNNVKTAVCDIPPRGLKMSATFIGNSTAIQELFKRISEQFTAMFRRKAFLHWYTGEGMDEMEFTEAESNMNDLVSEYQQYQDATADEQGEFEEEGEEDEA
T1 sequence (P02550 whole entry partner): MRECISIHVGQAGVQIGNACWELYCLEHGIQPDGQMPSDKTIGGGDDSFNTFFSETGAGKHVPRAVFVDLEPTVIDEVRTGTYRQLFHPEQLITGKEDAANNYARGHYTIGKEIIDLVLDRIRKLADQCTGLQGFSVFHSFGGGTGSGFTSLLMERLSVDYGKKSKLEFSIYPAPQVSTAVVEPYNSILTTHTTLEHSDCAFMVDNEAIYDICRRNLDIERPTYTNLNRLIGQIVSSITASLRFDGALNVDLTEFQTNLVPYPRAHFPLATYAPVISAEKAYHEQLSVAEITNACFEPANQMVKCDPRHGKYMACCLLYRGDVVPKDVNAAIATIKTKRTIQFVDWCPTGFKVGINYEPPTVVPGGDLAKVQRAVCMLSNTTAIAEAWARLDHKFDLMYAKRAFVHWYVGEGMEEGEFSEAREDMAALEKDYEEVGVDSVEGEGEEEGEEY

CO[C@H]1C[C@@H](C(=O)NC(=O)Nc2ccc(Oc3ccc(Cl)cn3)c(C)c2)C1 [RGN3067]
solubility kinetic at 1 h [1]: 5.7 µM (≈ 2.22 µg/mL)
efflux ratio at 90 min, 2 µM (MDR1 (P-gp); Papp basal-to-apical / apical-to-basal): 0.61
Papp at 90 min, 2 µM (MDR1 (P-gp); read-out: apparent permeability coefficient): 227 nm/s
IC50 [2]: 0.148 to 0.616 µM
reduction in tubulin polymerization (AUC) (porcine tubulin): 49%
cells arrested at G2/M (U87 glioblastoma cells): 73%
formation of the EBI–β-tubulin adduct [3]: reduces the formation of the EBI–β-tubulin adduct
IC50 (U87 cells; U87, compound left in medium, 72 h, read-out: IC50 cell viability, no-washout): 0.571 µM
IC50 (U87 cells; U87, compound washed out after 6 h, then 72 h, read-out: IC50 cell viability, after washout): > 10 µM
AUC [4]: 51.2 µg·h/mL
Cmax [4]: 7810 ng/mL and 20 µM
Tmax [4]: 2 h
half-life [4]: 3.61 ± 1.94 h
